{"source": "patent US20060088897A1", "about": "“Modulators” (priority 2003, published 2006)", "type_in_all_cases": "cell-based", "key": {"[1]": {"test_system": "N1E-115 cells", "assay": "Double staining of peptide treated cells with vinculin and αPAK antibodies (focal complexes)", "settings": "FIG. 7D", "experimental": "(§1) Cells are starved for 2-3 h and then either injected with peptides (10 μg/ml) or exposed to peptides with bioporter reagent. Cells are incubated for a further 2 h before being stained with phalloiden and examined by confocal microscopy (as described in the materials and methods section). (A) The upper cells is injected with αP1 (a), or all cells injected with αP1*(b), or exposed to αP2 with bioporter reagent (c). […] Results are expressed as means+/−SEM of 3 experiments (n=333-426 cells). […] (D) Cells are exposed to bioporter reagent with αP2 and after 6 h double stained with αPAK and vinculin antibodies; (a) Vinculin/αPAK, (b) Vinculin and (c) αPAK. Bar=10 μM. Control bars are with IgG with bioporter/microinjection.\nFor in situ analysis primary/secondary antibodies are used at 1:100 dilution. PAK antibodies, all from Santa-Cruz, are as follows; αPAK N-20 (raised to rat amino acids 2-21), αPAK C-19 (raised to rat amino acids 525-544), βPAK (raised to mouse amino acids 2-20), γPAK (raised to human amino acids 2-20) and γPAK (raised to human amino acids 2-20). Vinculin, paxillin, phosphotyrosine are from Sigma. Integrin antibodies β1-integrin and α6-integrin a gift from A. Sonneberg, NCI, Netherlands. Bac1 cells are seeded onto coverslips and then grown for 24 h before the media is replaced with either CSF free, serum free, or CSF/serum free. […]"}, "[2]": {"test_system": "N1E-115 cells", "assay": "Axonal guidance towards IGF (preliminary experiments)", "settings": "unpublished data", "source_text": "In preliminary experiments we have also examined the effect of the PAK peptides on axonal guidance towards IGF in N1E-115 cells."}, "[3]": {"test_system": "N1E-115 cells", "assay": "Peptide delivery with BioPorter reagent, scoring of neurites, filopodia and lamellipodia/ruffles", "experimental": "as §1\n(§2) Cells are starved for 2-3 h and then injected with peptides. Cells are then incubated for 2 h before being stained with phalloiden and examined by confocal microscopy (as described in the materials and methods section). (A) Cells are injected with IgG (a), with αP2 (b), with βP2 (c) and γP2 (d). Bar=10 μM. (B) Cells are exposed to bioporter with peptides and presence of neurites, pronounced filopodia and pronounced lamellipodia/ruffles scored (definitions as in FIG. 7). (C) Cells are either exposed to bioporter reagent coated peptides (αP2 and βP2) and then IGF or serum starvation used to activate cells. For γP2 cells are injected with peptide and stimulated with serum. Filopodia and lamellipodia are scored by using time-lapse phase contrast microscopy. +/−SEM of 3 experiments (n=900). Control peptide is taken from the kinase domain and common to the three PAK isoforms.\nBioPorter regent is supplied as a dried powder and must be dissolved in a solvent before use. To each tube of BioPorter reagent 250 μl of methanol is added and the powder is re-suspended by vortexing for 10-20 seconds. 10 μl of the mix is transferred into new eppendorf tubes; the methanol is allowed to evaporate for 2 hours in a laminar flow hood. The dried reagent is stored at −20° C.\nCells are plated out at 1.5×10^5 cells in a 35 mm dish containing 2 laminin-coated coverslips and incubated overnight. […]"}, "[4]": {"test_system": "N1E-115 cells", "assay": "Cell guidance assay at Laminin/CSPG boundary (axonal guidance)", "experimental": "Effect of PAK peptides on neurite morphology. Cells are exposed to control peptide, αP 1*, αP2, βP2, or γP2 and neurite morphology assessed. (B) Cells are plated on coverslips that been treated to create a Laminin/CSGP boundary. After 6 h cells are examined for their ability to project neurites that crossed the substrate boundary. Cells exposed to bioporter coated peptides, (a) αP2, (b) βP2, and (c) γP2. […] Results are means+/−SEM (n=161-263). (C) Cells are exposed to peptides and after 6 h are scored for their ability to cross boundary from Laminin to CSPG.\nThe coverslips are washed and sterilised and then coated in one of the following ways.\nA second layer of laminin is applied as a drop mixed with 1 μg/ml TRITC label. Coverslips are left for 1 hour at RT and then rinsed twice with sterile water before allowing to dry before use. (iii) Attractive/repulsive boundary. Slides are coated with CSPG 5 μg/ml for 1 hour at 37° C. in a humid chamber then rinsed once in sterile H2O and allowed to air dry before the drop of laminin at 10 μg/ml is applied to the centre of the coverslip and left for 1 hour at RT before rinsing twice in sterile water and allowing to dry before use. This coating is also done in reverse with the laminin applied first and then the tenascin or the CSPG applied second.\nThe cells are then seeded onto the prepared coverslips at 2×10^5 cells in 1 ml in a 35 mm petri dish, in DMEM, 10% FCS, and 1% AB/AM. Cells are allowed to attach overnight. The media is then removed and the coverslips rinsed in serum free media and incubated overnight (18 h) in serum free media. After the starvation the cells are fixed and stained to show the morphology of the cells at the boundary. Only neurites expressing neurofilamant are scored.\nAfter 5 minutes, the cells are washed once with serum free DMEM media and then 1 ml of serum free DMEM is added to the tube containing the peptide and BioPorter mix it is vortexed gently before being added to the cells. The cells are incubated for 4 hours at 37° C. After the 4 hour incubation the cells are then incubated for a further 2 hours in 5% FCS DMEM or for cells undergoing a substrate guidance assay the 2 hour incubation is in serum free DMEM. The cells are fixed and stained.\nNeurofilament positive neurites are scored for how they respond to Laminin/CSPG boundary. […] However, neurites do have distinct morphologies (FIG. 9A). Thus α, β and γ PAK are not essential for neurite outgrowth."}, "[5]": {"test_system": "N1E-115 cells", "assay": "Microinjection of peptides into partially serum starved N1E-115 cells, phalloidin staining and confocal microscopy of cell morphology", "settings": "FIG. 8A", "experimental": "as §1, §2\nCells are plated out at 1.0×10^5 cells in 1 ml in a 35 mm dish containing 2 laminin coated coverslips. The coverslips are first marked with a grid using a fine permanent marker and then coated with laminin and incubated overnight in DMEM, 10% FCS, 1% AB/AM. The media is replaced with serum free media (DMEM, 1% AB/AM) and the cells starved for 1 hour so that they flattened and are easier to inject. The peptides are injected at 10 μg/ml in PBS, Rat IgG at 1 mg/ml is added to act as a marker for injected cells.\nThe cells are injected using an Eppendorf microinjection apparatus on an Axioplan inverted microscope equipped with a heated stage maintained at 37° C. and a 5% CO2 chamber. Humidity is maintained by a dish of sterile water inside the CO2 chamber. Cells in a grid square are injected and positive injection checked visually at the time of injection or after fixation and staining for the injected marker. After injection the cells are returned to the incubator for a further 2 hours. Giving a total time without serum of 4 hours.\nThe only difference between these two peptides being that the latter peptide is phosphorylated on serine and this modification prevents it from binding Nck (Zhao et al., 1998). To investigate the effects of peptides we first serum starve the cells for 2-4 h to activate Cdc42Hs and Rac."}}, "data": [{"sequence": "SNNGLDIQDKPPAPPMRNTS [αP2]", "values": [{"measurement": "αPAK containing focal complexes (FC's) after peptide treatment", "setting": "[1]", "value": "leads to loss of FC's"}, {"measurement": "effect on axonal guidance towards IGF", "setting": "[2]", "value": "do not affect guidance"}, {"measurement": "neurite phenotype compared with αP1", "setting": "[3]; FIG. 7B", "value": "neurites that are thinner and longer"}, {"measurement": "percentage of cells possessing neurites compared with αP1", "setting": "[3]; FIG. 7B", "value": "higher"}, {"measurement": "optimal peptide concentration for the phenotypic changes", "setting": "[3]; dosage dependent effect, FIG. 7C", "value": 10, "unit": "µg/mL"}, {"measurement": "ability to detect the Laminin/CSPG boundary", "setting": "[4]; FIG. 9C", "value": "not affected"}, {"measurement": "neurite morphology", "setting": "[4]; serum starved cells, FIG. 9A", "value": "indistinguishable from control cells"}, {"measurement": "effect on formation of lamellipodia, filopodia or neurites concluded from microinjection", "setting": "[5]", "value": "synergise with both Cdc42 and Rac to produce neurites"}]}]}
